Target: PspF1-275 (Escherichia coli, UniProt P37344)
Settings: 10 μM protein, pH 8.0, on ice; labelled compound; comparative control

PspF1-275, sequence (P37344 1-275): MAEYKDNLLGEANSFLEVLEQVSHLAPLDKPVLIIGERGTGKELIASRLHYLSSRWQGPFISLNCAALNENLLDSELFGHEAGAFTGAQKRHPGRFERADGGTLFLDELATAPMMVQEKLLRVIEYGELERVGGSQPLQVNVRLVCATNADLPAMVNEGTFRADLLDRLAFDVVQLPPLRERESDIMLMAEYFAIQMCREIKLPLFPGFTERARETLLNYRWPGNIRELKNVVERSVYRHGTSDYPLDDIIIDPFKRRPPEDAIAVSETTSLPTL

SMILES: Nc1ncnc2c1ncn2[C@@H]1O[C@H](COP(=O)(O)OP(=O)(O)OP(=O)(O)O)[C@@H](O)[C@H]1O [ATP]
- ultraviolet crosslinking of [α-32P]ATP, SDS-PAGE, phosphorimaging: at a level comparable to that of the structurally and functionally characterized EBP PspF

— paper PMC3105312 (Nature Communications, 2011)
